Values joined by “and” are separate entries in the source; they are usually repeats but may differ in a detail not shown here. Equal values may be shown once. Records with an inconclusive call do not appear.
System: CD8F1 mice, subcutaneous mammary adenocarcinoma, T/C%
Assay: NCI In Vivo Anticancer Drug Screen. Data for tumor model Mammary Adenocarcinoma CD8F1 (subcutaneous) in CD8F1
Settings: higher = larger tumour
Outline: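 Mice carrying transplanted tumors received test compound, and survival or tumor size was recorded. Each value is the treated-group measurement divided by the corresponding measurement in vehicle-dosed controls.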

[1] = endpoint: median tumor weight change, dose: 12.5 mg/kg/injection, schedule: Q01DX001 (ip), vehicle: saline with Tween-80
[2] = endpoint: median tumor weight change, dose: 500.0 mg/kg/injection, schedule: Q01DX001 (ip), vehicle: saline
[3] = endpoint: median tumor weight change, dose: 1000.0 mg/kg/injection, schedule: Q01DX001 (ip), vehicle: saline
[4] = endpoint: median tumor weight (est.), dose: 12.5 mg/kg/injection, schedule: Q07DX005 (ip), vehicle: saline with Tween-80
[5] = endpoint: median tumor weight (est.), dose: 25.0 mg/kg/injection, schedule: Q07DX005 (ip), vehicle: saline with Tween-80
[6] = endpoint: median tumor weight (est.), dose: 50.0 mg/kg/injection, schedule: Q07DX005 (ip), vehicle: saline with Tween-80
[7] = endpoint: median tumor weight (est.), dose: 100.0 mg/kg/injection, schedule: Q07DX005 (ip), vehicle: saline with Tween-80
[8] = endpoint: median tumor weight change, dose: 125.0 mg/kg/injection, schedule: Q01DX001 (ip), vehicle: Klucel (hydroxypropylcellulose) (HPC)
[9] = endpoint: median tumor weight change, dose: 62.5 mg/kg/injection, schedule: Q01DX001 (ip), vehicle: saline with Tween-80
[10] = endpoint: median tumor weight change, dose: 125.0 mg/kg/injection, schedule: Q01DX001 (ip), vehicle: saline with Tween-80
[11] = endpoint: median tumor weight change, dose: 250.0 mg/kg/injection, schedule: Q01DX001 (ip), vehicle: saline with Tween-80
[12] = endpoint: median tumor weight change, dose: 500.0 mg/kg/injection, schedule: Q01DX001 (ip), vehicle: saline with Tween-80

C=C(C)[C@H]1CN[C@H](C(=O)O)[C@H]1CC(=O)O
T/C (endpoint: median tumor weight change, dose: 3.12 mg/kg/injection, schedule: Q01DX001 (ip), vehicle: saline): 99 % of control | T/C (endpoint: median tumor weight change, dose: 6.25 mg/kg/injection, schedule: Q01DX001 (ip), vehicle: saline): 77 % of control | T/C (endpoint: median tumor weight change, dose: 12.5 mg/kg/injection, schedule: Q01DX001 (ip), vehicle: saline): 77 % of control | T/C (endpoint: median tumor weight change, dose: 25.0 mg/kg/injection, schedule: Q01DX001 (ip), vehicle: saline): 73 % of control

Cc1cc(NCCCN(C)C)c2ccc3c(ccc4c(NCCCN(C)C)cc(C)nc43)c2n1
T/C (endpoint: median tumor weight change, dose: 3.9 mg/kg/injection, schedule: Q01DX001 (ip), vehicle: saline): 87 % of control | T/C (endpoint: median tumor weight change, dose: 7.81 mg/kg/injection, schedule: Q01DX001 (ip), vehicle: saline): 98 % of control

Nc1ccn([C@@H](C=O)O[C@@H](C=O)CO)c(=O)n1
T/C (endpoint: median tumor weight (est.), dose: 25.0 mg/kg/injection, schedule: Q07DX005 (ip), vehicle: suspension in saline): 122 % of control | T/C (endpoint: median tumor weight (est.), dose: 50.0 mg/kg/injection, schedule: Q07DX005 (ip), vehicle: suspension in saline): 188 % of control | T/C (endpoint: median tumor weight (est.), dose: 100.0 mg/kg/injection, schedule: Q07DX005 (ip), vehicle: suspension in saline): 151 % of control | T/C (endpoint: median tumor weight (est.), dose: 200.0 mg/kg/injection, schedule: Q07DX005 (ip), vehicle: suspension in saline): 105 % of control

CC1C(=O)c2cc3c(cc2CCN(C)Cc2c1ccc1c2OCO1)OCO3 (centres undefined)
T/C [1]: 65 % of control | T/C (endpoint: median tumor weight change, dose: 25.0 mg/kg/injection, schedule: Q01DX001 (ip), vehicle: saline with Tween-80): 64 % of control

O=C(Nc1ccc(Cl)c(Cl)c1)Nc1c(Oc2ccc(Cl)c(Cl)c2)ccc(Cl)c1S(=O)(=O)O
T/C (endpoint: median tumor weight (est.), dose: 6.25 mg/kg/injection, schedule: Q07DX005 (ip), vehicle: Klucel (hydroxypropylcellulose) (HPC)): 114 % of control | T/C (endpoint: median tumor weight (est.), dose: 6.25 mg/kg/injection, schedule: Q07DX005 (ip), vehicle: saline): 78 % of control | T/C (endpoint: median tumor weight (est.), dose: 12.5 mg/kg/injection, schedule: Q07DX005 (ip), vehicle: Klucel (hydroxypropylcellulose) (HPC)): 244 % of control | T/C (endpoint: median tumor weight (est.), dose: 12.5 mg/kg/injection, schedule: Q07DX005 (ip), vehicle: saline): 123 % of control | T/C (endpoint: median tumor weight (est.), dose: 25.0 mg/kg/injection, schedule: Q07DX005 (ip), vehicle: Klucel (hydroxypropylcellulose) (HPC)): 110 % of control | T/C (endpoint: median tumor weight (est.), dose: 25.0 mg/kg/injection, schedule: Q07DX005 (ip), vehicle: saline): 123 % of control | T/C (endpoint: median tumor weight (est.), dose: 50.0 mg/kg/injection, schedule: Q07DX005 (ip), vehicle: Klucel (hydroxypropylcellulose) (HPC)): 318 % of control | T/C (endpoint: median tumor weight (est.), dose: 100.0 mg/kg/injection, schedule: Q07DX005 (ip), vehicle: Klucel (hydroxypropylcellulose) (HPC)): 65 % of control | T/C (endpoint: median tumor weight (est.), dose: 100.0 mg/kg/injection, schedule: Q07DX005 (ip), vehicle: saline): 121 % of control | T/C (endpoint: median tumor weight (est.), dose: 200.0 mg/kg/injection, schedule: Q07DX005 (ip), vehicle: Klucel (hydroxypropylcellulose) (HPC)): 323 % of control | T/C (endpoint: median tumor weight (est.), dose: 200.0 mg/kg/injection, schedule: Q07DX005 (ip), vehicle: saline): 114 % of control

O=C1OC(=O)[C@H]2[C@@H]1[C@H]1C=C[C@@H]2OC1=O
T/C (endpoint: median tumor weight change, dose: 125.0 mg/kg/injection, schedule: Q01DX001 (ip), vehicle: saline): 154 % of control | T/C (endpoint: median tumor weight change, dose: 250.0 mg/kg/injection, schedule: Q01DX001 (ip), vehicle: saline): 98 % of control | T/C [2]: 91 % of control | T/C [3]: 95 % of control | T/C (endpoint: median tumor weight change, dose: 2000.0 mg/kg/injection, schedule: Q01DX001 (ip), vehicle: saline): 40 % of control

O=C[C@@H](CO)O[C@H](C=O)n1cnc2c(=O)[nH]cnc21
T/C (endpoint: mean tumor weight, dose: 12.5 mg/kg/injection, schedule: Q07DX004 (ip), vehicle: saline with Tween-80): 119 % of control | T/C (endpoint: mean tumor weight, dose: 25.0 mg/kg/injection, schedule: Q07DX004 (ip), vehicle: saline with Tween-80): 98 % of control | T/C (endpoint: mean tumor weight, dose: 50.0 mg/kg/injection, schedule: Q07DX004 (ip), vehicle: saline with Tween-80): 76 % of control | T/C (endpoint: mean tumor weight, dose: 100.0 mg/kg/injection, schedule: Q07DX004 (ip), vehicle: saline with Tween-80): 78 % of control | T/C (endpoint: mean tumor weight, dose: 200.0 mg/kg/injection, schedule: Q07DX004 (ip), vehicle: saline with Tween-80): 100 % of control | T/C (endpoint: mean tumor weight, dose: 400.0 mg/kg/injection, schedule: Q07DX004 (ip), vehicle: saline with Tween-80): 67 % of control | T/C [4]: 95 % of control | T/C [5]: 116 % of control | T/C [6]: 118 % of control | T/C [7]: 113 % of control | T/C (endpoint: median tumor weight (est.), dose: 200.0 mg/kg/injection, schedule: Q07DX005 (ip), vehicle: saline with Tween-80): 84 % of control | T/C (endpoint: median tumor weight (est.), dose: 400.0 mg/kg/injection, schedule: Q07DX005 (ip), vehicle: saline with Tween-80): 82 % of control

Cc1cc(Nc2ccc3c(c2)OCO3)c2cc3c(cc2n1)OCO3
T/C [8]: 54 % of control

CC(C)CCCCCCCCCCCCC(=O)NCC(=O)NC1C(O)C(O)C(Nc2ncnc3nc[nH]c23)OC1C(O)CO (centres undefined)
T/C (endpoint: median tumor weight (est.), dose: 1.0 mg/kg/injection, schedule: Q07DX005 (ip), vehicle: Klucel (hydroxypropylcellulose) (HPC)): 169 % of control | T/C (endpoint: median tumor weight (est.), dose: 2.0 mg/kg/injection, schedule: Q07DX005 (ip), vehicle: Klucel (hydroxypropylcellulose) (HPC)): 51 % of control and 76 % of control

C=C(C)C(=NC(C)(C)C)Nc1ccccc1
T/C [9]: 92 % of control | T/C [10]: 60 % of control | T/C [11]: 96 % of control

CC1(C)CC1(Br)Br
T/C [4]: 69 % of control | T/C [5]: 90 % of control | T/C [6]: 116 % of control | T/C [7]: 59 % of control

COc1ccc2ccccc2c1C1NC(=O)c2ccccc2N1 (centres undefined)
T/C [8]: 88 % of control | T/C (endpoint: median tumor weight change, dose: 250.0 mg/kg/injection, schedule: Q01DX001 (ip), vehicle: Klucel (hydroxypropylcellulose) (HPC)): 118 % of control | T/C (endpoint: median tumor weight change, dose: 500.0 mg/kg/injection, schedule: Q01DX001 (ip), vehicle: Klucel (hydroxypropylcellulose) (HPC)): 97 % of control | T/C (endpoint: median tumor weight change, dose: 1000.0 mg/kg/injection, schedule: Q01DX001 (ip), vehicle: Klucel (hydroxypropylcellulose) (HPC)): 60 % of control

CC(Cc1ccc(O)c(O)c1)C(C)Cc1ccc(O)c(O)c1 (centres undefined)
T/C [2]: 123 % of control | T/C [3]: 57 % of control

CCOC(=O)Nc1cc2c(c(N)n1)N=C(c1ccccc1)CN2
T/C (endpoint: median tumor weight change, dose: 6.25 mg/kg/injection, schedule: Q01DX001 (ip), vehicle: saline with Tween-80): 86 % of control | T/C [1]: 35 % of control

CCCC(=O)O.CCCC(=O)O.CCCC(=O)O.CCCC(=O)O.[Rh].[Rh]
T/C (endpoint: median tumor weight change, dose: 0.62 mg/kg/injection, schedule: Q01DX001 (ip), vehicle: saline + alcohol): 116 % of control | T/C (endpoint: median tumor weight change, dose: 1.25 mg/kg/injection, schedule: Q01DX001 (ip), vehicle: saline + alcohol): 81 % of control and 90 % of control | T/C (endpoint: median tumor weight change, dose: 2.5 mg/kg/injection, schedule: Q01DX001 (ip), vehicle: saline + alcohol): 56 % of control

CC1(C)CC2(C)OC2C2(C1)N=NC(=Nc1ccccc1)O2 (centres undefined)
T/C [10]: 78 % of control | T/C [11]: 64 % of control | T/C [12]: 41 % of control

CCN(CC)CC[n+]1ccc2c(C)c3[nH]c4ccc(O)cc4c3c(C)c2c1
T/C (endpoint: median tumor weight change, dose: 7.5 mg/kg/injection, schedule: Q01DX001 (ip), vehicle: suspension in saline): 83 % of control | T/C (endpoint: median tumor weight change, dose: 15.0 mg/kg/injection, schedule: Q01DX001 (ip), vehicle: suspension in saline): 72 % of control and 75 % of control | T/C (endpoint: median tumor weight change, dose: 15.6 mg/kg/injection, schedule: Q01DX001 (ip), vehicle: suspension in saline): 78 % of control | T/C (endpoint: median tumor weight change, dose: 31.0 mg/kg/injection, schedule: Q01DX001 (ip), vehicle: suspension in saline): 57 % of control | T/C (endpoint: median tumor weight change, dose: 60.0 mg/kg/injection, schedule: Q01DX001 (ip), vehicle: suspension in saline): 7 % of control and 26 % of control | T/C (endpoint: median tumor weight change, dose: 62.0 mg/kg/injection, schedule: Q01DX001 (ip), vehicle: suspension in saline): 3 % of control

CCc1nc(N)nc(N)c1-c1ccc(Cl)c(N=[N+]=[N-])c1
T/C [9]: 57 % of control | T/C [10]: 78 % of control | T/C (endpoint: median tumor weight change, dose: 2000.0 mg/kg/injection, schedule: Q01DX001 (ip), vehicle: saline with Tween-80): 24 % of control

O=c1n(CC2CO2)c(=O)n(CC2CO2)n1CC1CO1 (centres undefined)
T/C (endpoint: median tumor weight change, dose: 62.5 mg/kg/injection, schedule: Q01DX001 (ip), vehicle: saline): 29 % of control

C=C(C)[C@@H]1CCc2c(O)c(O)c(=O)cc(C)c2C1
T/C (endpoint: median tumor weight change, dose: 31.0 mg/kg/injection, schedule: Q01DX001 (ip), vehicle: saline with Tween-80): 83 % of control | T/C (endpoint: median tumor weight change, dose: 62.0 mg/kg/injection, schedule: Q01DX001 (ip), vehicle: saline with Tween-80): 57 % of control | T/C [10]: 88 % of control | T/C [11]: 57 % of control | T/C [12]: 93 % of control

Reference: PubChem BioAssay AID220 (DTP/NCI, 2004)
